# Columns and labels:
# [1] = system: acne; conditions: 4% active AGP formula; in less than 48 hours
# [2] = system: Staphyloccocus aureus; conditions: at low concentration
# [3] = system: C. albicans isolates, including one fluconazole-resistant strain; conditions: AGP at 0.25% topical, 1-7 days, cyclophosphamide-immunosuppressed animals; compared with 2% miconazole
# Protocol: Pre-clinical studies with three C. albicans isolates, including one fluconazole-resistant strain, were performed using immunosuppressed animals with cyclophosphamide.
# [4] = system: P. acnes; conditions: complete inhibition
# [5] = system: P. acnes and various pathogenic candida; conditions: including against resistant pathogenic strains
# [6] = system: Escherichia coli; conditions: at low concentration
substance,measurement,setting,value
N-acetylglucoseamine (AGA)-glucosamine (GA)-pyrithione (PR) [AGP],results in acne patients,[1],remarkable results
same,activity toward Staphyloccocus aureus,[2],active
same,clearing the infection,[3],equivalent in clearing the infection as 2% miconazole
same,concentration that completely inhibited P. acnes,[4],less than 0.1 mg/mL
same,bactericidal activity,[5],excellent bactericidal activity
same,activity toward Escherichia coli,[6],active

# — patent publication US20070078109A1, “Compositions and methods used to treat acne and candida” (priority 2004, published 2007)
